Marks after values point to notes of the source that are not given here. Where no end group is shown, it is not given here.
Experiments:
sarcoma tumor cells = assay: MTT proliferation inhibition, sarcoma cells; type: cell-based, human; set-up: concentration or dose not given beside the values; conditions: 48 h
In short: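 Tumour cells plated at 2×10^4 cells/mL, attached overnight, then exposed to dilutions of mPEG-HM-1 for 48 h at 37 °C, 5% CO2. MTT added 4 h, formazan dissolved in DMSO, absorbance 570/630 nm; growth inhibition = 1 − treated/untreated, three independent repeats, mean±SD.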

various tumor cells = assay: MTT proliferation inhibition, overall statements on various tumor cells; type: cell-based, human; conditions: compared with the negative control
Description: The activity of mPEG-HM-1 to inhibit the growth of various tumor cells was examined by MTT assay. The tumor cells were cultured to a concentration of 90% or more in a 37° C., 5% CO2 incubator and collected by trypsinization. The cells were resuspended in the culture medium and counted under a microscope to adjust the cell concentration to 2×10^4 cells/mL, the cell suspension was inoculated into a 96-well plate at 100 μL/well and incubated overnight at 37° C. in a 5% CO2 incubator. mPEG-HM-1 was diluted with the culture solution to each predetermined concentration. Docetaxel is diluted to the final concentration with the culture medium. After the cells were fully attached, each dilution was added to a 96-well plate (100 μL/well). The mPEG-HM-1 dilution was added as a drug-administered group, and docetaxel was added as a positive control group, and a culture solution without any drug was used as a negative control group. Incubate for 48 h at 37° C. in a 5% CO2 incubator. 5 mg/mL of MTT was added to a 96-well plate at 20 μL per well, and incubation was continued for 4 hours. The medium was aspirated, dissolved in 150 μL of DMSO per well, and gently mixed by shaking for 10 min. The absorbance was measured at a measurement wavelength of 570 nm and a reference wavelength of 630 nm using a microplate reader, and the rate of growth inhibition (proliferation inhibition, PI) was calculated. The formula is as follows: PI (%)=1−administration group/negative group
The test was repeated 3 times independently, and the results obtained by the test were expressed as mean±SD, and the test results are shown in Table 15 to Table 18.

[1] = system: xylene-induced ear swelling in Kunming mice; assay: Xylene-induced ear swelling in mice; type: in vivo, mouse; conditions: for Swelling: 2 h after xylene; for Inhibition rate: ear swelling vs control
In short: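 Kunming mice were dosed once daily for 5 days (aspirin 200 mg/kg as positive control, saline as blank). One hour after the last dose, xylene was applied to the right ear, with the left ear as untreated reference. Ear punches were weighed 2 h later; swelling degree = right − left weight, rate = degree/left weight ×100%.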

[2] = system: adjuvant arthritis (AA) SD rats; assay: Adjuvant arthritis (AA) rat model; type: in vivo; conditions: for Joint swelling / Left and right paw swelling / Clinical score: AA SD rats; for Clinical score: maximum score 16; for in vivo immune protection effect on adjuvant arthritis model (in words): AA rats, subcutaneous, once every three days, vs model group
[3] = system: corneal neovascularization in BALB/c mice; assay: Alkali-burn corneal neovascularization in BALB/c mice (CD31 microvessel density); type: in vivo, mouse; conditions: for inhibition rate of corneal neovascularization: BALB/c mice, alkali burn, intravitreal injection once a day for 1 week; for Inhibition rate: corneal microvessel density vs control; for Inhibition rate / MVD: day 14 after alkali burn, intravitreal once a day for 1 week; for MVD: microvessel density (CD31) of cornea
Text: (1) Preparation of corneal neovascularization model induced by alkali burn in BALB/c mice: mice were randomly grouped and labeled as mPEG-HM-1 experimental group and control group, 5 […] in each group, respectively, was given mPEG-HM-1 and saline by Intravitreal injection after alkali burn, once a day for 1 week. The inflammatory reaction and neovascularization of the cornea were observed under slit lamp microscope at 1 d, 7 d, and 14 d after alkali burn. On the 14th day after alkali burn, the corneal neovascularization was recorded under the slit lamp microscope in the anterior segment of the eye. All the mice were euthanized by cervical dislocation and the eyeballs were removed, washed with saline to rid of blood, and was fixed in 4% paraformaldehyde for 1.5 h, dehydrated in PBS containing 30% sucrose overnight, embedded in OCT frozen section embedding agent, stored in −80° C. refrigerator, frozen section 8 μm, and underwent immunocytochemical detection of CD31 expression. (2) Quantitative measurement of corneal tissue microvessel density: Microvessel density (MVD) is an indicator for evaluating angiogenesis. Vascular endothelial cells were labeled with anti-CD31 antibody by immunohistochemistry, and the number of microvessels per unit area was counted to measure the degree of neovascularization. Standards for counting microvessels: Microscopically, the endothelial cells or cell clusters that are clearly demarcated from adjacent tissues in the corneal tissue and stained brown or brown are counted in the neovascularization. The number of new blood vessels in the whole section was counted under a 10×20 microscope. After the corneal tissue was photographed, the entire corneal tissue area was calculated by image processing software Image J, and the neovascular density of the whole section was determined. The test was repeated 3 times independently. The results obtained by the test were expressed as mean±SD, and a statistical T test was performed. *P<0.05 was a significant difference, and **P<0.01 was a very significant difference.

[4] = system: neovascularization in rat model of premature retinopathy; assay: Fluctuating-oxygen rat model of premature retinopathy (endothelial nuclei count); type: in vivo; conditions: vascular endothelial nuclei per slice, day 14
Description: A fluctuating oxygen-induced animal model was used to randomly divide the newborn rats that were naturally delivered on the same day (within 12 hours) into three groups: the oxygenated model group, the oxygenated treatment group, and the normal control group. The oxygenated model group was subdivided into three subgroup models and along with the oxygenated treatment group was placed in a semi-closed oxygen chamber made of plexiglass. The chamber was connected to medical oxygen, and the oxygen analyzer was adjusted to a concentration of 80%±2%. After 24 hours, Nitrogen gas was introduced into the oxygen chamber, and the oxygen concentration was adjusted to 10%±2% and maintained for 24 h. This process was repeated, so that the oxygen concentration in the oxygen chamber is switched between 80% and 10% every 24 hours, and then transferred to the air for 7 days. The oxygen concentration was monitored 8 times a day, and the ambient temperature in the control cabin was 23° C.±2° C. Bedding change, adding food, changing water and replacing mother rats were performed once a day. The normal control group was placed in an animal facility environment. […] The oxygenated therapeutic components were divided into four subgroups, and on the 7th day of modeling, mPEG-SC-HM-1, mPEG2-NHS-HM-1, mPEG-ALD10k-HM-1, and mPEG-bALD-HM-1 were respectively administered by intravitreal injection. Only normal saline was administered to the oxygen model group and the control group. The administrations continued for 1 week. […] After immersion in wax, serial section at thickness of 4 μm was performed, wherein the sections were kept away from the optic disc. The sections are parallel to the sagittal plane of the cornea to the optic disc. Ten sections per eyeball were randomly selected from each eyeball to be stained with hematoxylin and eosin, and the number of vascular endothelial cells that broke through the retinal inner membrane was counted (only the vascular endothelial nucleus closely related to the inner retinal membrane was counted), and the average numbers of endothelial cells per eyeball per slice was counted.

[5] = 20 mg/kg subcutaneous once every three days
[6] = 50 μg intravitreal for 1 week from day 7
[7] = 40 mg/kg subcutaneous once every three days
[8] = 100 μg intravitreal for 1 week from day 7

mPEG-bALD10k-Arg-Gly-Ala-Asp-Arg-Ala-Gly-Gly-Gly-Gly-Arg-Gly-Asp ({mPEG‑bALD 10 kDa}-RGADRAGGGGRGD) [mPEG-bALD10k-HM-1]
rate of growth inhibition (sarcoma tumor cells): 52.01 ± 12.32%
inhibition of proliferation of various tumor cells (in words) (various tumor cells): had the best effect
Swelling ([1]; 10 mg/kg once daily for 5 days): 5.37 ± 0.14 mg
Inhibition rate ([1]; 10 mg/kg once daily for 5 days): 11.54%
Swelling ([1]; 20 mg/kg once daily for 5 days): 4.64 ± 0.72* mg
Inhibition rate ([1]; 20 mg/kg once daily for 5 days): 23.63%
Swelling ([1]; 40 mg/kg once daily for 5 days): 3.59 ± 0.35** mg
Inhibition rate ([1]; 40 mg/kg once daily for 5 days): 40.88%
Joint swelling [2, 5]: 0.69 ± 0.13 mm
Left and right paw swelling [2, 5]: 3.73 ± 0.52 mm
Clinical score [2, 5]: 5.40 ± 1.09
in vivo immune protection effect on adjuvant arthritis model (in words) [2]: has the most significant effect
inhibition rate of corneal neovascularization [3]: 52.03%
Inhibition rate [3]: 52.03%
MVD [3]: 32.01 ± 5.738**
Cell nuclei count [4, 6]: 7.627 ± 1.892

mPEG-SC20k-Arg-Gly-Ala-Asp-Arg-Ala-Gly-Gly-Gly-Gly-Arg-Gly-Asp ({mPEG‑SC 20 kDa}-RGADRAGGGGRGD) [mPEG-SC20k-HM-1]
rate of growth inhibition (sarcoma tumor cells): 48.93 ± 10.53%
inhibition of proliferation of various tumor cells (in words) (various tumor cells): had the best effect
Swelling ([1]; 20 mg/kg once daily for 5 days): 5.38 ± 0.17 mg
Inhibition rate ([1]; 20 mg/kg once daily for 5 days): 12.36%
Swelling ([1]; 40 mg/kg once daily for 5 days): 4.69 ± 0.79* mg
Inhibition rate ([1]; 40 mg/kg once daily for 5 days): 23.67%
Swelling ([1]; 80 mg/kg once daily for 5 days): 3.77 ± 0.33** mg
Inhibition rate ([1]; 80 mg/kg once daily for 5 days): 38.58%
Joint swelling [2, 7]: 0.81 ± 0.20 mm
Left and right paw swelling [2, 7]: 3.75 ± 0.67 mm
Clinical score [2, 7]: 5.83 ± 1.01
Inhibition rate [3]: 46.53%
MVD [3]: 35.68 ± 4.842**
Cell nuclei count [4, 8]: 7.372 ± 2.078

mPEG2-NHS20k-Arg-Gly-Ala-Asp-Arg-Ala-Gly-Gly-Gly-Gly-Arg-Gly-Asp ({mPEG2‑NHS 20 kDa}-RGADRAGGGGRGD) [mPEG2-NHS20k-HM-1]
rate of growth inhibition (sarcoma tumor cells): 48.91 ± 10.57%
inhibition of proliferation of various tumor cells (in words) (various tumor cells): had the best effect
Swelling ([1]; 20 mg/kg once daily for 5 days): 5.52 ± 0.16 mg
Inhibition rate ([1]; 20 mg/kg once daily for 5 days): 10.65%
Swelling ([1]; 40 mg/kg once daily for 5 days): 4.80 ± 0.29* mg
Inhibition rate ([1]; 40 mg/kg once daily for 5 days): 22.37%
Swelling ([1]; 80 mg/kg once daily for 5 days): 3.96 ± 0.22** mg
Inhibition rate ([1]; 80 mg/kg once daily for 5 days): 35.92%
Joint swelling [2, 7]: 0.80 ± 0.21 mm
Left and right paw swelling [2, 7]: 3.77 ± 0.66 mm
Clinical score [2, 7]: 5.82 ± 1.03
Inhibition rate [3]: 42.37%
MVD [3]: 38.46 ± 4.528**
Cell nuclei count [4, 8]: 7.683 ± 2.914

mPEG-ALD10k-Arg-Gly-Ala-Asp-Arg-Ala-Gly-Gly-Gly-Gly-Arg-Gly-Asp ({mPEG‑ALD 10 kDa}-RGADRAGGGGRGD) [mPEG-ALD10k-HM-1]
rate of growth inhibition (sarcoma tumor cells): 53.01 ± 11.42%
inhibition of proliferation of various tumor cells (in words) (various tumor cells): had the best effect
Swelling ([1]; 10 mg/kg once daily for 5 days): 5.36 ± 0.12 mg
Inhibition rate ([1]; 10 mg/kg once daily for 5 days): 12.36%
Swelling ([1]; 20 mg/kg once daily for 5 days): 4.67 ± 0.79* mg
Inhibition rate ([1]; 20 mg/kg once daily for 5 days): 23.67%
Swelling ([1]; 40 mg/kg once daily for 5 days): 3.58 ± 0.33** mg
Inhibition rate ([1]; 40 mg/kg once daily for 5 days): 41.58%
Joint swelling [2, 5]: 0.68 ± 0.15 mm
Left and right paw swelling [2, 5]: 3.72 ± 0.54 mm
Clinical score [2, 5]: 5.39 ± 1.10
in vivo immune protection effect on adjuvant arthritis model (in words) [2]: has the most significant effect
inhibition rate of corneal neovascularization [3]: 53.83%
Inhibition rate [3]: 53.83%
MVD [3]: 30.81 ± 5.465**
Cell nuclei count [4, 6]: 7.581 ± 1.903
